Source: patent US6342602B1, “Aryl or heteroaryl amides of tetrahydronaphthalene, chroman, thichroman and 1,2,3,4-tetrahydroquinolinecarboxlic acids, having an electron withdrawing substituent in the aromatic or heteroaromatic moiety, having retinoid-like biological activity” (Allergan Sales, Inc., priority 1995, dated 2002)

Key:
Assay in all cases: Cancer cell line assay, incorporation of 3H-thymidine
Settings in all cases: 10^−11 to 10^−6 molar concentration range, 96 hours
[1] = tested on: AML-193; format: cell-based
Method: (§1) All trans-Retinoic acid (t-RA) (Sigma Chemicals Co., St. Louis, M.) was stored at −70° C. Prior to each experimet the compound was dissolved in 100% ethanol at 1 mM and diluted in culture medium immediately before use. All experiments were performed in subdued light. Controls were assayed using the same concentration of ethanol as present in the experimental plates and this concentration of diluent had no effect in either assay.
AML-193 was established from the blast cells classified as M5 Acute Monocyte Leukemia. The growth factor, […] (GM-CSF) was required to establish this cell line and growth factors are necessary for its continuous proliferation in chemically defined medium. AML-193 cells were grown and maintained in Iscove's modified Dulbeccous medium supplemented with 10% fetal bovine serum, glutamine and antibiotics with 5 μg/ml insulin (Sigma Chemical Co.) and 2 ng/ml rh GM-CSF (R and D Systems). The cells were diluted to a concentration of 3×10^5/ml twice a week.
(§2) ME-180 wells, harvested by trypsinization were plated in a 96 well flat bottom microtiter plate (Costar) at a density of 2,000 cells/well. The cultures were treated as described above for RPMI 8226 with the following exceptions. After incubation with thymidine the supernatant was carefully removed, and the cells were washed with a 0.5 mM solution of thymidine in phosphate buffered saline. ME180 cells were briefly treated with 50 μl of 2.5% trypsin to dislodge the cells from the plate. AML-193 cells were plated in a 96 well round bottom microtiter plate (Costar) at a density of 1,000 cells/well. To appropriate wells, retinoid test compounds were added at the final concentrations indicated for a final volume of 150 μl/well. The plates were incubated for 96 hours at 37° C. in a humidified atmosphere of 5% CO2 in air. Subsequently, 1 μCi of [5′-^3H]-thymidine (Amersham, U.K., 43 Ci/mmol specific activity) in 25 μl culture medium was added to each well and the cells were incubated for an additional 6 hours.
(§3) All cells lines were then processed as follows: the cellular DNA was precipitated with […] trichloroacetic acid onto glass fiber filter mats using a SKATRON multi-well cell harvester (Skatron Instruments, Sterling Va.). Radioactivity incorporated into DNA, as a direct measurement of cell growth, was measured by liquid scintillation counting. The numbers represent the mean disintegrations per minute of incorporated thymidine from triplicate wells±SEM.

[2] = tested on: ME-180; format: cell-based, human
Method: as §1
ME-180 is a human epidermoid carcinoma cell line derived from the cervix. The tumor was a highly invasive squamous cell carcinoma with irregular cell clusters and no significant keratinization. ME-180 cells were grown and maintained in McCoy's 5a medium (Gibco) supplemented with 10% fetal bovine serum, glutamine and antibiotics. The cells were maintained as monolayer cultures grown at 37° C. in a humidified atmosphere of 5% CO2 in air. The cells were diluted to a concentration of 1×10^5/ml twice a week.
as §2, §3

[3] = tested on: RPMI 8226; format: cell-based, human
Method: as §1
All cell lines, RPMI 8226, ME-180 and AML-193 were obtained from the American Type Culture Collection (ATCC, Rockville, Md.). RPMI 8226 is a human hematopoietic cell line obtained from the peripheral blood of a patient with multiple myeloma. The cells resemble the lymphoblastoid cells of other human lymphocyte cell lines and secrete […] light chains of immunoglobulin. RPMI-8226 cells are grown in RPMI medium (Gibco) supplemented with 10% fetal bovine serum, glutamine and antibiotics. The cells were maintained as suspension cultures grown at 37° C. in a humidified atmosphere of 5% CO2 in air. The cells were diluted to a concentration of 1×10^5/ml twice a week.
The method used for determination of the incorporation of radiolabeled thymidine was adapted from the procedure described by Shrivastav et al. RPMI-8226 cells were plated in a 96 well round bottom microtiter plate (Costar) at a density of 1,000 cells/well. To appropriate wells, retinoid test compounds were added at the final concentrations indicated for a final volume of 150 μl/well. The plates were incubated for 96 hours at 37° C. in a humidified atmosphere of 5% CO2 in air. Subsequently, 1 μCi of (5′-^3H]-thymidine (Amersham, U.K. 43 Ci/mmol specific activity) in 25 μl culture medium was added to each well and the cells were incubated for an additional 6 hours. The cultures were further processed as described below.
as §3

Compound | proliferation of the tumor cell line (incorporation of radioactive labeled thymidine) [1] | proliferation of the tumor cell line (incorporation of radioactive labeled thymidine) [2] | proliferation of the tumor cell line (incorporation of radioactive labeled thymidine) [3]
CC1(C)CCC(C)(C)c2c(Br)cc(C(=O)Nc3ccc(C(=O)O)c(F)c3)cc21 [Compound 6] | significant decrease in the proliferation | significant decrease in the proliferation | significant decrease in the proliferation
CC1(C)CCC(C)(C)c2cc(C(=O)Nc3ccc(C(=O)O)c(F)c3)c(O)cc21 [Compound 8] | significant decrease in the proliferation | significant decrease in the proliferation | significant decrease in the proliferation
CC1(C)CC(C)(C)c2cc(C(=O)Nc3ccc(C(=O)O)c(F)c3)cc(Br)c2O1 [Compound 12] | significant decrease in the proliferation | significant decrease in the proliferation | significant decrease in the proliferation
CC1(C)CC(C)(C)c2cc(C(=O)Nc3ccc(C(=O)O)c(F)c3)cc(C(F)(F)F)c2O1 [Compound 14] | significant decrease in the proliferation | significant decrease in the proliferation | significant decrease in the proliferation
CC1(C)CC(C)(C)c2cc(C(=O)Nc3ccc(C(=O)O)c(F)c3)cc(I)c2O1 [Compound 20] | significant decrease in the proliferation | significant decrease in the proliferation | significant decrease in the proliferation
